Test results taken from paper PMC3849007 (Journal of Experimental & Clinical Cancer Research : CR, 2013).

Assays:
[1] = tested on: Telomere dysfunction Induced Foci in BJ-EHLT fibroblasts; experiment: TIF analysis (γH2AX/TRF1 co-localization); assay type: cell-based, human; settings: 24 hrs; for number of TIFs per nucleus: mean
Experimental: Cells were fixed in 2% formaldehyde and permeabilized in 0.25% Triton X100 in PBS for 5 min at room temperature. For immunolabeling, cells were incubated with primary antibody, then washed in PBS and incubated with the secondary antibodies. The following primary antibodies were used: pAb and mAb anti-TRF1 (Abcam Ltd.; Cambridge UK); mAb (Upstate, Lake Placid, NY) and pAb anti-γH2AX (Abcam). The following secondary antibody were used: TRITC conjugated Goat anti Rabbit, FITC conjugated Goat anti Mouse (Jackson ImmunoResearch Europe Ltd., Suffolk, UK). Fluorescence signals were recorded by using a Leica DMIRE2 microscope equipped with a Leica DFC 350FX camera and elaborated by a Leica FW4000 deconvolution software (Leica, Solms, Germany). This system permits to focus single planes inside the cell generating 3D high-resolution images. For quantitative analysis of γH2AX positivity, 200 cells on triplicate slices were scored. For TIF’s analysis, in each nucleus a single plane was analyzed and at least 50 nuclei per sample were scored.

[2] = tested on: h-Tel quadruplex DNA 5′-d[AGGG(TTAGGG)3]-3′; experiment: Surface plasmon resonance, quadruplex DNA; settings: for Surface plasmon resonance K, Quadruplex (Q) DNA: 10 mM HEPES, 200 mM KCl, 3 mM EDTA, 0.01% P20, pH 7.4, equilibrium binding constant
Excerpt: Oligonucleotides 5′-biotin-d[AG3(T2AG3)3] quadruplex and 5′-biotin-CGA3T3C(CT)2GA3T3CG were purchased from Midland Certified Reagent Company (Midland, TX).
In the present work these measurements were repeated comparing ligand binding to the same h-Tel sequence but with a different duplex sequence 5′-d[CGA3T3C(CT)2GA3T3CG]-3′ as comparator.

[3] = target: T1, human recombinant β2 adrenergic receptor (Homo sapiens, UniProt P07550); experiment: β2-adrenergic receptor binding assay (CHO expressing cells)
T1 construct: expressed in transfected cells; host or cells: CHO
Experimental: For hERG study, HEK293 cells were cultured (1–7 days) in DMEM/GlutaMax-1 + 10% FBS and were plated on collagen-coated dishes (about 2×10^4 cells/dish). The cell was held at -80 mV. A 50-millisecond pulse to -40 mV was delivered to measure the leaking currents, which were subtracted from the tail currents online. […] This paradigm was delivered once every 5 seconds to monitor the current amplitude. After the current amplitude stabilized, the test compound was delivered to the extracellular medium by a rapid solution changer perfusion system. During perfusion, the cell was repetitively stimulated with the protocol described above, and the current amplitude was continuously monitored. Data were acquired and analyzed by using pClamp (Axon Instruments), and Excel (Microsoft), and are reported as mean and individual values. The degree of inhibition (%) was obtained by measuring the tail current amplitude before and after drug superfusion (the difference current was normalized to control and multiplied by 100 to obtain the percent of inhibition). […] The concentration-response relationship of each compound was constructed from the percentage reductions of current amplitude by sequential concentrations. β2-adrenergic receptor CHO expressing cells were used for the receptor inhibition assay as described. The results are expressed as a percent of inhibition of control specific binding (100 - (measured specific binding/control specific binding) × 100)) obtained in the presence of the test compounds. The specific ligand binding to the receptors is defined as the difference between the total binding and the nonspecific binding determined in the presence of an excess of unlabelled ligand. All the in-vivo experiments were carried out at the Regina Elena Cancer Institute.
Inhibition of receptor was reported as inhibition of control specific binding (100 - (measured specific binding/control specific binding) × 100) obtained in the presence of the test compounds.

[4] = tested on: BJ-EHLT fibroblasts; experiment: Proliferation assay, transformed fibroblasts; assay type: cell-based, human; settings: 0.5 μM, culture day 2 to 8
Experimental: BJ fibroblasts expressing hTERT (BJ-hTERT) or hTERT and SV40 early region (BJ-EHLT), were obtained as previously reported. Cells were grown in Dulbecco Modified Eagle Medium (D-MEM, Invitrogen Carlsbad, CA, USA) supplemented with 10% fetal calf serum, 2 mM L-glutamin and antibiotics.
5 × 10^4 cells were seeded in 60-mm Petri plates (Nunc, MasciaBrunelli, Milano, Italy) and 24 h after plating, 0.5 μM of freshly dissolved compound was added to the culture medium. Cell counts (Coulter Counter, Kontron Instruments, Milano, Italy) and viability (trypan blue dye exclusion) were determined daily, from day 2 to day 8 of culture.

[5] = tested on: h-Tel 5'-d[AGGG(TTAGGG)3]-3' (DNA, G4) AGGGTTAGGGTTAGGGTTAGGG; experiment: CD spectroscopy, induced anti-parallel structure; settings: no significant K+; 298 K; 3.5 molar equivalents of ligand; band at 290 nm emerges
[6] = tested on: h-Tel (anti-parallel) quadruplex; experiment: CD thermal unfolding of h-Tel quadruplex; assay type: binding, human; settings: for CD study thermal stability ∆Tm: compared to h-Tel without bound ligand (Tm 70 ± 3); for CD study thermal stability Tm: h-Tel 4 μM with 3.5 mol.equiv. ligand, K+ solution, unfolding at 290 nm
Experimental: CD spectra were recorded on an Applied Photophysics Pi-Star-180 spectrophotometer (Applied Photophysics Ltd, Surrey, UK). The optical system was configured with a 75 W Xe lamp, circular light polarizer and end-mounted photomultiplier. The instrument had previously been calibrated with (D)-camphorsulfonic acid. Temperature was regulated using a Neslab RTE-300 circulating programmable water bath (Neslab Inc). CD spectra were recorded at 298 K in a 10 mm path length cell over a wavelength range of 215–345 nm in steps of either 1 0r 2 nm, with 3 nm entrance/exit slit widths: the number of counts was set to 10,000 with adaptive sampling set to 500,000. The spectra were corrected by subtracting the spectrum of the same buffer solution of 100 mM potassium chloride and 10 mM potassium phosphate at pH 7.0. Annealing and melting profiles were recorded using a thermoelectric temperature controller (Melcor) on 4 μM DNA samples with and without 3.5 mol.equiv. of ligands using 0.5 K temperature increments and a cooling or heating rate of 0.2 K/min over the temperature range 298-368 K.
This analysis was extended to examine the effects of ligand binding on thermal stability by measuring the unfolding curves at 290 nm of the complexes formed in K^+ solution, corresponding to the CD spectra shown in Figure 4a. Monitoring the thermal unfolding transition for h-Tel produces a sigmoidal unfolding curve with a transition mid-point Tm value of 72 ± 3°C (Figure 4c). All three ligands show significant effects in enhancing the stability of the quadruplex by shifting the Tm values to higher temperatures (∆Tm ~ 15-19°C compared to h-Tel without bound ligands) (Table 1).

[7] = tested on: h-Tel quadruplex (Q) DNA, 5'-biotin-d[AG3(T2AG3)3] (DNA, G4) AGGGTTAGGGTTAGGGTTAGGG; experiment: surface plasmon resonance; settings: 200 mM KCl; 10 mM HEPES, 3 mM EDTA, 0.01% P20, pH 7.4
[8] = tested on: h-Tel 5'-d[AGGG(TTAGGG)3]-3' (DNA, G4) AGGGTTAGGGTTAGGGTTAGGG; experiment: CD melting at 290 nm; settings: 110 mM K+ (100 mM KCl, potassium phosphate), 10 mM potassium phosphate, pH 7.0, 4 μM DNA, 3.5 mol equiv. ligand

T1 sequence (P07550 whole entry): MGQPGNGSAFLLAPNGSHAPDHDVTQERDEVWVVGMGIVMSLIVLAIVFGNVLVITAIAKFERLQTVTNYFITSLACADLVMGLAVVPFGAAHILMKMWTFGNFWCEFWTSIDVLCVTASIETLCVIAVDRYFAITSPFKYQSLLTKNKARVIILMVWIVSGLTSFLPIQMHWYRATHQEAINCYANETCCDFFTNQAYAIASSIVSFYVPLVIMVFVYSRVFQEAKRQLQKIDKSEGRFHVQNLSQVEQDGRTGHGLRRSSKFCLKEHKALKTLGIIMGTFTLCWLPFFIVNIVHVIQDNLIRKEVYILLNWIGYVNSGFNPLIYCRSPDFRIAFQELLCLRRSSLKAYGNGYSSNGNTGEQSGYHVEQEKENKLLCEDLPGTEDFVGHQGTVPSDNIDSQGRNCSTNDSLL

| SMILES | number of TIFs per nucleus [1] | Surface plasmon resonance K, Quadruplex (Q) DNA [2] [M⁻¹] | Ratio Q/D (SPR) ([2]; quadruplex K / duplex K) | inhibition at 1 µM ([3]; 1 μM, Cerep ExpresSProfile screen, read-out: % inhibition of ligand binding, β2 adrenergic receptor) [%] | inhibition at 10 µM ([3]; 10 μM, inhibition of control specific binding, CHO cells, read-out: B2 adrenergic % inhib. (10 μM)) [%] | day of maximum effect on cell proliferation [4] | binding [5] | CD study thermal stability ∆Tm [6] [°C] | CD study thermal stability Tm [6] [°C] | K [7] [M⁻¹] | ∆Tm ([8]; Tm 86 ± 3) [°C] | percentage of TIF-positive cells ([1]; cells with more than four γH2AX/TRF1 co-localizations) | B2 adrenergic % inhib. (10 μM) ([3]; 10 μM, inhibition of control specific binding, CHO cells) [%] | ∆Tm ([8]; Tm 85 ± 3) [°C] |
| --- | --- | --- | --- | --- | --- | --- | --- | --- | --- | --- | --- | --- | --- | --- |
| Cc1cc2c3c([n+](C)c4ccc(F)cc4c3c1)-c1cc(F)ccc1N2C [Compound 1, 3,11-Difluoro-6,8,13-trimethyl-8H-quino[4,3,2-kl]acridinium metho-sulfate] | ca. eight | 8.3e+06 | 13.8 | > 95 | 100 | 6 days | yes | 16 | 86 ± 3 | 8.3e+06 | 16 |  |  |  |
| CC(=O)Nc1ccc2c(c1)c1cccc3c1c([n+]2C)-c1ccccc1N3C [Compound 3, 3-acetylamino-8,13-dimethyl-8H-quino[4,3,2-kl]-acridinium iodide] | six | 8e+06 |  |  |  | seven | yes | 15 | 85 ± 3 | 8e+06 |  | significant but less pronounced effect | 29 | 15 |
